Laboratory results reported in patent US20230026696A1, “TRPV4 RECEPTOR LIGANDS” (UNIVERSITY OF UTAH RESEARCH FOUNDATION, priority 2019, published 2023).

Columns and labels:
human TRPA1 = target: T1, human TRPA1 (Homo sapiens, UniProt O75762); assay: Selectivity Ca2+ flux assay, TRPA1 stably over-expressed in HEK-293 cells; assay type: cell-based; conditions: agonist 2,4-ditert butylphenol (50 μM)
T1 construct: expressed in transfected cells
Method: (§1) To determine selectivity of the various test compounds for TRPV4, select compounds with activity in the TRPV4 fluorometric cell-based Ca^2+ flux assays were also tested for inhibition of human TRPA1 stably over-expressed in HEK-293 cells, TRPM8 stably over-expressed in HEK-293 cells, TRPV3 stably over-expressed in HEK-293 cells, and TRPV1 stably overexpressed in human lung epithelial (BEAS-2B) cells. The assays were conducted substantially as described above for HEK-293 cells that stably overexpress TRPV4, although for TRPV1, the BEAS-2B cells were maintained in LHC-9 media containing Geneticin (300 μg/mL) and were loaded with Fluo-4AM at room temperature. The agonist for TRPA1 was 2,4-ditert butylphenol (50 μM), for TRPM8 was icilin (50 μM), for TRPV3 was carvacrol (300 μM), and for TRPV1 was nonivamide (5 μM). All other aspects of the assay described above were the same.

TRPM8 = target: T2, TRPM8 (Homo sapiens, UniProt Q7Z2W7); assay: Selectivity Ca2+ flux assay, TRPM8 stably over-expressed in HEK-293 cells; assay type: cell-based; conditions: agonist icilin (50 μM)
T2 construct: expressed in transfected cells
T2 sequence (Q7Z2W7 whole entry): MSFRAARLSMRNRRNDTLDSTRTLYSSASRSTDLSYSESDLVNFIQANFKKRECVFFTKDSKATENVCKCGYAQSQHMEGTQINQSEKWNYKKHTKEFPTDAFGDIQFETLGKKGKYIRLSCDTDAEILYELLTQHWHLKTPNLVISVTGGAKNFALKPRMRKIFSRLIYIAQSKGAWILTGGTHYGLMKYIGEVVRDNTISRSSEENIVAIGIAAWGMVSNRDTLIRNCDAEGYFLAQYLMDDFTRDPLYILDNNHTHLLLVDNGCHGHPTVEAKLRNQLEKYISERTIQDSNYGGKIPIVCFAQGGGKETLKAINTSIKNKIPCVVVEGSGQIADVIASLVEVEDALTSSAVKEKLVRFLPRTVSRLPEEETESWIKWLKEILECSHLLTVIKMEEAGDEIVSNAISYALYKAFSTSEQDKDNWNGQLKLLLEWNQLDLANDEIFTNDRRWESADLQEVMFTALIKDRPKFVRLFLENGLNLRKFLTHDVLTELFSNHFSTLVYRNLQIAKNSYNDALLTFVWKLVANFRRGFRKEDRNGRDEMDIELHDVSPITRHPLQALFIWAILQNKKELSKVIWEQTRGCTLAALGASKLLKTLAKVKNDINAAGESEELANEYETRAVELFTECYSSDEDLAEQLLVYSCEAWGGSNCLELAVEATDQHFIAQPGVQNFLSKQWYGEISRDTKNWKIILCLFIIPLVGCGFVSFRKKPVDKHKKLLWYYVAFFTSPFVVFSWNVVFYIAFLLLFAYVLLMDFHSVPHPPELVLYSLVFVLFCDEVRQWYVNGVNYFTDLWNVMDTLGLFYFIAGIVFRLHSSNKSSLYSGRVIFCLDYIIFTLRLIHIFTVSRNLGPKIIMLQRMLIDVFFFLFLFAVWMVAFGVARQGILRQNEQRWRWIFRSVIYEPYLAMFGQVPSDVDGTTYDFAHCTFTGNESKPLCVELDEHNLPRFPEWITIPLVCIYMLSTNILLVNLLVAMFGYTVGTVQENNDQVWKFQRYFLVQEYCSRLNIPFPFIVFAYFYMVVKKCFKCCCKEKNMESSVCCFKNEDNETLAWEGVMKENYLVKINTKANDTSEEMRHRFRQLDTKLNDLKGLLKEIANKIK
Method: as §1

TRPV3 = target: T3, TRPV3 (Homo sapiens, UniProt Q8NET8); assay: Selectivity Ca2+ flux assay, TRPV3 stably over-expressed in HEK-293 cells; assay type: cell-based; conditions: agonist carvacrol (300 μM)
T3 construct: expressed in transfected cells
T3 sequence (Q8NET8 1-790): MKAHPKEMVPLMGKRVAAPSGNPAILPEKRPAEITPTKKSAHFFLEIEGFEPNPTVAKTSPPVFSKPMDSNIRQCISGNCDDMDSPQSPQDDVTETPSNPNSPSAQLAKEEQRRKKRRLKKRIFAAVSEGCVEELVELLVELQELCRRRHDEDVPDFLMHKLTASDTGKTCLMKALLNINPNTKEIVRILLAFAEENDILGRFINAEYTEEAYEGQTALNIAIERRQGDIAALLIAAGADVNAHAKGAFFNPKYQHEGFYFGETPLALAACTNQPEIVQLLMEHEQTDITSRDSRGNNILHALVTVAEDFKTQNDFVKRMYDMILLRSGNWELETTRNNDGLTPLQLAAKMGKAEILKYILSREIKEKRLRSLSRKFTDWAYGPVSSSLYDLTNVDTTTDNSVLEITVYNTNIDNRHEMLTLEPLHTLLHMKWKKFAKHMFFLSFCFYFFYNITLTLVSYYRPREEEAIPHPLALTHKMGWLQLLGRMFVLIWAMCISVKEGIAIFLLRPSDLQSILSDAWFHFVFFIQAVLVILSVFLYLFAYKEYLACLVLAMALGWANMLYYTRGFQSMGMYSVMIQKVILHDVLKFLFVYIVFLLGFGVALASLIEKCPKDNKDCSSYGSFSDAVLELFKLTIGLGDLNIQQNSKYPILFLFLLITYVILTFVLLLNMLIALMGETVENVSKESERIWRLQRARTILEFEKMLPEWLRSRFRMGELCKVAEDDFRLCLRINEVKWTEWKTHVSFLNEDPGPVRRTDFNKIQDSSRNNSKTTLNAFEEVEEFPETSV
Method: as §1

TRPV1 = target: T4, TRPV1 (Homo sapiens, UniProt Q8NER1); assay: Selectivity Ca2+ flux assay, TRPV1 stably overexpressed in human lung epithelial (BEAS-2B) cells; assay type: cell-based; conditions: agonist nonivamide (5 μM)
T4 construct: expressed in transfected cells
T4 sequence (Q8NER1 whole entry): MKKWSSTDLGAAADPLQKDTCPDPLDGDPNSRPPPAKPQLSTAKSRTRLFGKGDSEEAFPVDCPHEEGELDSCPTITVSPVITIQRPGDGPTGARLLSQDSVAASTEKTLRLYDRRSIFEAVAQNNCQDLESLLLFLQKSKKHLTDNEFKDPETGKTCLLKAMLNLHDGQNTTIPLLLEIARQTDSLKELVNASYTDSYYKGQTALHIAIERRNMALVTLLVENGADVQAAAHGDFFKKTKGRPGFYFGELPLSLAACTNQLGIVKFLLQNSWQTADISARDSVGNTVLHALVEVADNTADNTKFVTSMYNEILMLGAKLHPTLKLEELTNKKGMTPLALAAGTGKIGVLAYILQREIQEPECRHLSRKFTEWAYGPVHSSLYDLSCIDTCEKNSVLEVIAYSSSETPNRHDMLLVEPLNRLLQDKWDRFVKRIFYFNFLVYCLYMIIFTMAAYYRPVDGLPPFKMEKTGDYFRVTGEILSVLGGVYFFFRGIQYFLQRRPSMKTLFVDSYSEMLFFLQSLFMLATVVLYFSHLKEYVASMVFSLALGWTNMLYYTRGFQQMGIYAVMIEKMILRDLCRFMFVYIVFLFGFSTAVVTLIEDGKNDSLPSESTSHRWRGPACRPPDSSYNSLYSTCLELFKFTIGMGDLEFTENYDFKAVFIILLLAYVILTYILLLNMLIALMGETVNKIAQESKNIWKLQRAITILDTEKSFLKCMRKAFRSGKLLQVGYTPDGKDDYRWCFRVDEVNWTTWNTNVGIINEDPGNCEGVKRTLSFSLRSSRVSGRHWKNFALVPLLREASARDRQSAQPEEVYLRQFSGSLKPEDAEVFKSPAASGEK
Method: as §1

[1] = system: intraocular pressure (IOP); assay: In vivo tonometric IOP assay in microbead mouse model of ocular hypertension; conditions: FIG. 2 right panel; P<0.01 / P<0.001, two-way ANOVA
Method: FIG. 1 is a graph showing the effect that two concentrations of topical compound 11 (0.01% and 0.1%), 0.5% timolol, and control PBS had on IOP in the microbead (MB) mouse model of ocular hypertension (N=3 separate experiments, with 7-10 mice per experimental cohort). Error bars=±S.E.M. Ocular hypertension in the mouse model of primary open angle glaucoma (POAG) was induced with intracameral injection of polystyrene microbeads. Antagonist stock solutions (10 mM) were prepared in DMSO, the final concentrations were made in PBS diluted to <0.0001% DMSO.
FIG. 2 is a bar chart showing the cumulative data for pre-IOP elevation cohorts of mouse eyes (N≥3 separate experiments, with 7-10 mice per experimental cohort). Left panel: the IOP data are plotted as % of the control value of the timolol-treated eye cohort. Middle panel: MB injection elevated IOP in all experimental cohorts.
A tonometric assay was used to measured IOP changes in mice models of ocular hypertension over a period of weeks following topical application of the compounds.
To prepare the mice models of ocular hypertension, mice were anesthetized with an intraperitoneal (IP) injection of ketamine/xylazine (90 mg/10 mg/kg of body weight). Eye drops of 0.5% proparacaine hydrochloride with 1% tropicamide ophthalmic solution (Bausch & Lomb) were applied to numb and dilate the eyes of the mice. IOP was elevated in the ipsilateral eye by injecting 2 μl of polystyrene microbeads (7.8 μm FluoSpheres; Bangs Laboratories) with a Hamilton syringe into the anterior chamber over 60 seconds. The contralateral eye was injected with phosphate buffered saline (PBS).
A rebound tonometer was used to measure IOP at 1, 2, 6 and 10 hours post-injection after topical administration of Compounds 11 and 52 and timolol, a known medication for treatment of IOP associated with ocular hypertension and glaucoma. The IOP was determined from the means of 10 to 20 readings, following the protocol described in Ryskamp et al., Sci Rep 6:30583, 2016. […]

[2] = system: intraocular pressure (IOP); assay: as above; conditions: for IOP after single topical application: 1 μM and 10 μM, comparable to 0.5% timolol; for IOP after topical administration / protection of RGCs: mouse model of ocular hypertension, compounds 1 μM and 10 μM, timolol 0.5%; for IOP after topical administration: FIG. 1; for protection of RGCs: topical

T1 sequence (O75762 whole entry): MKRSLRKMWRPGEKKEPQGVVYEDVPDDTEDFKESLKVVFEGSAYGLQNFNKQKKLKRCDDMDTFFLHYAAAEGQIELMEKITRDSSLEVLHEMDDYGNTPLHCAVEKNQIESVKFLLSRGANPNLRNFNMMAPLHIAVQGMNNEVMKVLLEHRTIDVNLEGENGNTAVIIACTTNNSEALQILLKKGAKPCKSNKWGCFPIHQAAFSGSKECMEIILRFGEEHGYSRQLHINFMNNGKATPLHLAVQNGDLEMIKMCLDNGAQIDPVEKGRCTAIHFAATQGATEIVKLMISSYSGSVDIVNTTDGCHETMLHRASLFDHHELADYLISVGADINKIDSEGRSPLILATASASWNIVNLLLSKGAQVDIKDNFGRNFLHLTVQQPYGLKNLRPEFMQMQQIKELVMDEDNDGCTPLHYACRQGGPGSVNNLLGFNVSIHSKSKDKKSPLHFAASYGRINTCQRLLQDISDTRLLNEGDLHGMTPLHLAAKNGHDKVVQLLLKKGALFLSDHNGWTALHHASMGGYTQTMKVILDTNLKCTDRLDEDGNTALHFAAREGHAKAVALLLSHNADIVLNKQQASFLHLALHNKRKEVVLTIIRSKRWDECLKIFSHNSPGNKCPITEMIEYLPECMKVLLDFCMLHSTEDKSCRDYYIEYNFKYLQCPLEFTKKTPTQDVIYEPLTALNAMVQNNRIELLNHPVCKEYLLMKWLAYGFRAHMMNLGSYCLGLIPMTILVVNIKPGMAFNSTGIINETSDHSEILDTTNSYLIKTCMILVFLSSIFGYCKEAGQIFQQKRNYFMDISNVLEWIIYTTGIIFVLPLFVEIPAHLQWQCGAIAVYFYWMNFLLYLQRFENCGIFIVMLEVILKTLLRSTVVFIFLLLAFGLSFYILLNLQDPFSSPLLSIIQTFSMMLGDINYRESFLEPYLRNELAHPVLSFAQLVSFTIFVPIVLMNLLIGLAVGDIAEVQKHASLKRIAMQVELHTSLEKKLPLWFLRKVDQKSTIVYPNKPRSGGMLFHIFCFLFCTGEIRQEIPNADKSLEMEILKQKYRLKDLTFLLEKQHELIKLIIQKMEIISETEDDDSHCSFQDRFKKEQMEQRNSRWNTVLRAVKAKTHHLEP

Row | Structure (SMILES) | IC50 (human TRPA1) | IC50 (TRPM8) | IC50 (TRPV3) | IC50 (TRPV1) | IOP levels in MB-treated eyes, topical application [1] | IOP after single topical application [2] | IOP after topical administration [2] | protection of RGCs [2]
1 | N#Cc1ccc(OCC2(CO)CN(S(=O)(=O)c3ccc(Cl)cc3Cl)C2)cc1F [Compound 11, 4-((1-((2,4-Dichlorophenyl)sulfonyl)-3-(hydroxymethyl)azetidin-3-yl)methoxy)-2-fluorobenzonitrile] | 52 µM | 14.4 µM | > 100 µM | 24.3 µM | significantly lowered IOP levels | effectively lower IOP | lowered the IOP | protected RGCs
2 | Cl.N#Cc1ccc(OCC2(N)CN(S(=O)(=O)c3ccc(Cl)cc3Cl)C2)cc1F [Compound 52, 4-((3-Amino-1-((2,4-dichlorophenyl)sulfonyl)azetidin-3-yl)methoxy)-2-fluorobenzonitrile hydrochloride salt] | 89.6 µM | 35.9 µM | > 100 µM | 60 µM | significantly lowered IOP levels | effectively lower IOP | lowered the IOP | protected RGCs
